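Each compound was tested at five concentrations against cells in 96-well plates for 48 hours. Abbreviation: GI50, concentration required for 50% inhibition of growth. The concentration for full growth arrest is given as TGI.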
Columns and labels:
Assay in all cases: DTP human tumour cell line panel, 48 h
786-0 renal = tested on: 786-0 renal
A549 NSCLC = tested on: A549 NSCLC
COLO 205 colon = tested on: COLO 205 colon
HOP-62 NSCLC = tested on: HOP-62 NSCLC
IGROV1 ovarian = tested on: IGROV1 ovarian
OVCAR-3 ovarian = tested on: OVCAR-3 ovarian
RPMI-8226 leukemia = tested on: RPMI-8226 leukemia
SK-MEL-5 melanoma = tested on: SK-MEL-5 melanoma
SK-OV-3 ovarian = tested on: SK-OV-3 ovarian
SNB-75 CNS = tested on: SNB-75 CNS

Compound | GI50 (786-0 renal) [µM] | TGI (786-0 renal) [µM] | GI50 (A549 NSCLC) [µM] | TGI (A549 NSCLC) [µM] | GI50 (COLO 205 colon) [µM] | TGI (COLO 205 colon) [µM] | GI50 (HOP-62 NSCLC) [µM] | TGI (HOP-62 NSCLC) [µM] | GI50 (IGROV1 ovarian) [µM] | TGI (IGROV1 ovarian) [µM] | GI50 (OVCAR-3 ovarian) [µM] | TGI (OVCAR-3 ovarian) [µM] | GI50 (RPMI-8226 leukemia) [µM] | TGI (RPMI-8226 leukemia) [µM] | GI50 (SK-MEL-5 melanoma) [µM] | TGI (SK-MEL-5 melanoma) [µM] | GI50 (SK-OV-3 ovarian) [µM] | TGI (SK-OV-3 ovarian) [µM] | GI50 (SNB-75 CNS) [µM] | TGI (SNB-75 CNS) [µM]
CCCC(CCC)C(=O)OCC1(CO)C/C(=C\c2ccc(C(F)(F)F)cc2)C(=O)O1 (stereo not given) | 10.1 | 22.5 | 5.69 | 26.3 | 0.577 | 9.37 | 2.34 | 15.1 | 14.8 | 33 | 19.8 | 36.1 | 10.7 | 26.9 | 0.948 | 19.6 | 19.7 | 34 | 12.1 | 26.8
COc1ccc2c(c1)C=C1CSCC3=Cc4cc(OC)ccc4OC13O2 | 0.821 | > 100 | 0.492 | > 100 | 0.292 | 0.917 | 0.407 | > 100 | 0.608 | > 100 | 0.295 | 0.884 | 0.368 | > 34.4 | 0.41 | > 100 | 0.671 | > 100 | 0.183 | 0.598
NS(=O)(=O)c1ccc(N2N=C(c3cccs3)CC2c2ccccc2O)cc1 (stereo not given) | 1.84 | 8.45 | 1.16 | 7.06 | 0.577 | 1.88 | 2.67 | 9.46 | 1.6 | 14.2 | 0.933 | 2.64 | 1.16 | 5.29 | 1.47 | 5.68 | 1.18 | 10.1 | 0.437 | 1.76
CCC(=O)c1c(C(F)(F)F)n([O-])c2ccccc2[n+]1=O | 1.66 | 8.17 | 2.3 | 11.4 | 2.06 | 6.51 | 0.7 | 3.54 | 1.38 | > 100 | 1.74 | 6.35 | 0.694 | 3.69 | 0.961 | 2.64 | 3.05 | 14 | 3.79 | 24.8
Clc1ccc(/C=C/c2nc(Cl)c(-c3ccc(Cl)cc3)c(Cl)n2)cc1 |  | > 100 |  | > 100 |  | > 100 |  | > 100 |  | > 100 |  | > 100 |  | > 100 |  | > 100 |  | > 100 |  | 64.5

From PubChem BioAssay (NCI)
